Target: T1, hA3AR (Homo sapiens, UniProt P0DMS8)
T1 construct: expressed in transfected cells; host or cells: CHO cells (CHOhA3AR), gift of Prof; K.N. Klotz, University of Würzburg; used as membrane fractions or live cells
T1 sequence (P0DMS8 1-318): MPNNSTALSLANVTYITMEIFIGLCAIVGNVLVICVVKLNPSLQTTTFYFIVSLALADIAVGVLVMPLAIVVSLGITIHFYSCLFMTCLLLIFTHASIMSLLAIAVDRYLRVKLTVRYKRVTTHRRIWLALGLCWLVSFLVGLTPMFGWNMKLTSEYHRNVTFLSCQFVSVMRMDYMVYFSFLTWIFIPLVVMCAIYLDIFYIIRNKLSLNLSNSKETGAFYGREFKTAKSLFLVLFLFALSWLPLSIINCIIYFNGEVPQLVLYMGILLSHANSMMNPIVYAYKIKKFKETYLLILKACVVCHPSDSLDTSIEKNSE
Assay: SDS-PAGE labeling in CHO membrane fractions, click to Cy5-N3
Type: binding
Details: 50 nM probe, compared with 5 and 13
Experimental: Membrane fractions were prepared as mentioned above and diluted to a concentration of 1 μg/μL. 18 μL of membrane fractions from either CHOhA3AR or CHO-K1 cells were taken. 1 μL of competing ligand (PSB-11, unless noted otherwise) was added (final concentration: 1 μM in 0.05% DMSO in assay buffer), and the samples were shaken for 30 min at rt. 1 μL of affinity-based probe was then added (final concentration: 50 nM in 0.05% DMSO in assay buffer, unless noted otherwise), and the samples were shaken for 1 h at rt. Deglycosylation was initiated by addition of 0.5 μL of PNGaseF (5 U), 0.5 μL of MilliQ water for the control samples, and the samples were shaken for 1 h at rt. The click mix was freshly prepared by adding together 5 parts 100 mM CuSO4 in MilliQ, 3 parts 1 M sodium ascorbate (NaAsc) in MilliQ, 1 part 100 mM Tris(3-hydroxypropyltriazolylmethyl)amine (THPTA) in MilliQ, and 1 part 100 μM Cy5-N3 in DMSO. […] In-gel fluorescence was measured on a Bio-Rad Universal Hood III using Cy3 (605/50 filter) or Cy5 (695/55 filter) settings. […]
Gel images were analyzed using Image Lab software version 6.0.1 (Bio-Rad). Quantification was done in the following manner: the area under the curve (AUC) of the bands was selected using the ‘Lane Profile’ tab and the adjusted volumes were taken. […]

In the case of C#CCOc1ccn2c(c1)nc1c2c(=O)n(CCC)c(=O)n1CCCNC(=O)c1ccc(S(=O)(=O)F)cc1 [compound 9, 4-((3-(2,4-Dioxo-8-(prop-2-yn-1-yloxy)-3-propyl-3,4-dihydropyrido[2,1-f]purin-1(2H)-yl)propyl)carbamoyl)benzenesulfonyl fluoride], the “off-target labeling on gel” value is reported as “fewer other proteins labeled”.

From paper PMC10461224, “Development of an Affinity-Based Probe to Profile Endogenous Human Adenosine A3 Receptor Expression” (Journal of Medicinal Chemistry, 2023)
